{"source": "ChEMBL document CHEMBL1155316", "about": "“Benzo[d]imidazole inhibitors of Coactivator Associated Arginine Methyltransferase 1 (CARM1)--Hit to Lead studies” (Bioorg Med Chem Lett, 2009)", "key": {"[1]": {"target": "T1, Histone-arginine methyltransferase CARM1 (Homo sapiens, UniProt Q86X55)", "T1 sequence (Q86X55 whole entry)": "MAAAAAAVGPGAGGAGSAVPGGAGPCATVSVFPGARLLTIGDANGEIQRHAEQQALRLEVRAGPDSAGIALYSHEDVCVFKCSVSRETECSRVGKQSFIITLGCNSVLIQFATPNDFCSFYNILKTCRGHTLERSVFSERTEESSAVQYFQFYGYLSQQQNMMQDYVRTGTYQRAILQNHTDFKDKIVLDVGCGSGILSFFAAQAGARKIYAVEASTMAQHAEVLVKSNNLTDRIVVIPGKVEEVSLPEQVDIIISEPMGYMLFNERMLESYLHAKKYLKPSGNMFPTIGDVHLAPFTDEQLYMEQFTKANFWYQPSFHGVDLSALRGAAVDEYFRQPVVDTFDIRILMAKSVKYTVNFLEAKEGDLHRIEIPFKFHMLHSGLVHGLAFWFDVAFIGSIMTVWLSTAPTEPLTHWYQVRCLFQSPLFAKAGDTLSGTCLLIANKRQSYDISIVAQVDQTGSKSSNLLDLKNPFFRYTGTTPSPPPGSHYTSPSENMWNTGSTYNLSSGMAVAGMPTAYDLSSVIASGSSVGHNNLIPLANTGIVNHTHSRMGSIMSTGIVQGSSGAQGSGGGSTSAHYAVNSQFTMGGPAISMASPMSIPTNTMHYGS", "assay": "Inhibition of human CARM1 assessed as inhibition of histone3 methylation"}, "[2]": {"target": "T2, Histone-arginine methyltransferase CARM1 (Homo sapiens) (UniProt Q86X55)", "T2 sequence (whole entry)": "T1 sequence (Q86X55 whole entry)", "assay": "Inhibition of human CARM1 assessed as inhibition of HuR methylation"}, "[3]": {"target": "T2, Histone-arginine methyltransferase CARM1 (Homo sapiens)", "assay": "Inhibition of human CARM1 assessed as inhibition of PABP methylation"}, "[4]": {"target": "Protein arginine N-methyltransferase 1 (Homo sapiens, UniProt Q99873)", "sequence (Q99873 whole entry)": "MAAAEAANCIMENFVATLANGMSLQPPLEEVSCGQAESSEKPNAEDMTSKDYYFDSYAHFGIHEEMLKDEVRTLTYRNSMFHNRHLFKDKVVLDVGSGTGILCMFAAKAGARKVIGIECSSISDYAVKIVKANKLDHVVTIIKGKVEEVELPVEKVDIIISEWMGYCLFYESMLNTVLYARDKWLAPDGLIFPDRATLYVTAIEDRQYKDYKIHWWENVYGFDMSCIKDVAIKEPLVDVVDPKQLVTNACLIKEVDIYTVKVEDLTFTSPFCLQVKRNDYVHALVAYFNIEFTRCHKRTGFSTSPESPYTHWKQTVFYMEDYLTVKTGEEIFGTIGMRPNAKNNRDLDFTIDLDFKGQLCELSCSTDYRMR", "assay": "Inhibition of PRMT1"}, "[5]": {"target": "Protein arginine N-methyltransferase 3 (Homo sapiens, UniProt O60678)", "sequence (O60678 whole entry)": "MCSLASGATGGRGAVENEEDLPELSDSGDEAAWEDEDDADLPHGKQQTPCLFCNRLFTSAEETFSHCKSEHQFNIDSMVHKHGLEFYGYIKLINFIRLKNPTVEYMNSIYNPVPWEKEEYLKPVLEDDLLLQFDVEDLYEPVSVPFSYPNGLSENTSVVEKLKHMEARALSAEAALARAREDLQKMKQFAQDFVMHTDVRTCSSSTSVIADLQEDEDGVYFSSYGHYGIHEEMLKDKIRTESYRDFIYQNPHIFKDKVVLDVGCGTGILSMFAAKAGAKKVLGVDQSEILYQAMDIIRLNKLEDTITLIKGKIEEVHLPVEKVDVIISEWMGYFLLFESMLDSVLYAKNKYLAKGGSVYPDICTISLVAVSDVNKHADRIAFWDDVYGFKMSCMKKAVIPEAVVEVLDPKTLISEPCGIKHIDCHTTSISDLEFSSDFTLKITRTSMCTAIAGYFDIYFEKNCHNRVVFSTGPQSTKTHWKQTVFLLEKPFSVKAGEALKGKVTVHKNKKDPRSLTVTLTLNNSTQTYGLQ", "assay": "Inhibition of PRMT3"}}, "note": "The source made the active and inactive calls. No cut-off for these calls is given here."}
{"smiles": "CN[C@@H](C)CN1CCC(c2cc(C)c3nc(-c4cccnc4OC)[nH]c3c2)CC1", "values": [{"measurement": "IC50", "setting": "[1]", "value": "> 30", "unit": "µM"}]}
{"smiles": "C[C@H](N)C(=O)NCc1cccc(-n2nc(C(F)(F)F)cc2-c2nnc(-c3cccc4ncsc34)o2)c1", "values": [{"measurement": "IC50", "setting": "[1]", "value": 0.04, "unit": "µM"}]}
{"smiles": "CNCCN1CCC(c2cc(C)c3[nH]c(-c4c(OC)cccc4OC)nc3c2)CC1", "values": [{"measurement": "Activity", "setting": "[2]", "value": "Active"}, {"measurement": "Activity", "setting": "[3]", "value": "Active"}]}
{"smiles": "CN[C@H](C)CN1CCC(c2cc(C)c3nc(-c4cccnc4OC)[nH]c3c2)CC1", "values": [{"measurement": "IC50", "setting": "[1]", "value": "> 30", "unit": "µM"}]}
{"smiles": "CNCCN1CCC(c2cc(C)c3nc(-c4c(OC)cccc4OC)[nH]c3c2)CC1", "values": [{"measurement": "IC50", "setting": "[4]", "value": "> 25", "unit": "µM"}, {"measurement": "IC50", "setting": "[5]", "value": "> 25", "unit": "µM"}]}
